What was measured:
S. aureus DSM 20231 [1] = assay: Bliss interaction score (quartile over a dose matrix) (fitness difference); higher = more antagonism (negative = synergy)
Procedure, shortened: (§1)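 Growth was read as OD595 when cultures entered stationary phase, and each value was divided by the plate's robust no-drug mean and capped at 1. This normalised ratio is the fitness value, and fitness for each single drug came from the combination data. The Bliss score subtracts the expected fitness, taken as the product, from the observed fitness and is given as quartiles across technical, biological and donor/recipient replicates.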

B. subtilis 168 [2] = assay: as above
Procedure, shortened: as §1

S. aureus Newman [3] = assay: as above
Procedure, shortened: as §1

S. pneumoniae D39V [4] = assay: as above
Procedure, shortened: as §1

S. aureus DSM 20231 [5] = assay: fitness (endpoint OD595 vs no drug) (fraction); higher = more growth
Procedure, shortened: (§2)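 At 37 °C, bacteria in TSB, LB Lennox or CY were grown in 384-well plates from a starting OD595 of 0.01. OD595 was measured every 30 min for 14 h, with the first reading used as background. Fitness is the optical density at the switch to stationary phase as a fraction of the robust mean of no-drug control wells, capped at 1.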

B. subtilis 168 [6] = assay: as above
Procedure, shortened: as §2

S. aureus Newman [7] = assay: as above
Procedure, shortened: as §2

S. pneumoniae D39V [8] = assay: as above
Procedure, shortened: as §2
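Throughout, for Bliss interaction score (quartile over a dose matrix): first quartile when negative (synergy) and third quartile when positive (antagonism).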
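Throughout, for fitness (endpoint OD595 vs no drug): OD595 on entry to stationary phase over no-drug wells; at most 1.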

O=C(N[C@H](CO)[C@H](O)c1ccc([N+](=O)[O-])cc1)C(Cl)Cl [Chloramphenicol] + CC(=O)NC[C@H]1CN(c2ccc(N3CCOCC3)c(F)c2)C(=O)O1 [Linezolid]
Settings | Bliss interaction score
B. subtilis 168 [2] | -0.141
S. aureus DSM 20231 [1] | -0.152
S. aureus Newman [3] | -0.112
S. pneumoniae D39V [4] | 0.0462

fitness, S. aureus DSM 20231 [5]
Settings | first compound 0.75 µg/mL | first compound 1.5 µg/mL | first compound 3 µg/mL
partner 0.125 µg/mL | 0.609 | 0.321 | 0.11
partner 0.25 µg/mL | 0.353 | 0.227 | 0.0855
partner 0.5 µg/mL | 0.128 | 0.119 | 0.0711

S. aureus DSM 20231 [5], partner 1 µg/mL, one replicate
Settings | fitness
first compound 0.75 µg/mL | 0.0506
first compound 1.5 µg/mL | 0.0474
first compound 3 µg/mL | 0.0396

O=C(N[C@H](CO)[C@H](O)c1ccc([N+](=O)[O-])cc1)C(Cl)Cl [Chloramphenicol] + CCC[C@@H]1C[C@@H](C(=O)N[C@@H]([C@H]2O[C@H](SC)[C@H](O)[C@@H](O)[C@H]2O)[C@@H](C)O)N(C)C1 [Lincomycin]
Settings | Bliss interaction score
B. subtilis 168 [2] | 0.11
S. aureus DSM 20231 [1] | 0.0462
S. aureus Newman [3] | -0.167
S. pneumoniae D39V [4] | 0.105

fitness, S. aureus DSM 20231 [5]
Settings | first compound 0.75 µg/mL | first compound 1.5 µg/mL | first compound 3 µg/mL
partner 0.1 µg/mL | 0.729 | 0.57 | –
partner 0.2 µg/mL | 0.563 | 0.378 | –
partner 0.4 µg/mL | 0.215 | 0.167 | 0.0709

CCC[C@@H]1C[C@@H](C(=O)N[C@@H]([C@H]2O[C@H](SC)[C@H](O)[C@@H](O)[C@H]2O)[C@H](C)Cl)N(C)C1 [Clindamycin] + COc1cc(Cc2cnc(N)nc2N)cc(OC)c1OC [Trimethoprim]
Settings | Bliss interaction score
B. subtilis 168 [2] | -0.144
S. aureus DSM 20231 [1] | 0.0511
S. aureus Newman [3] | 0.196
S. pneumoniae D39V [4] | 0.0411

fitness
Settings | first compound 0.0312 µg/mL | first compound 0.0625 µg/mL | first compound 0.125 µg/mL | first compound 0.25 µg/mL
B. subtilis 168 [6], partner 0.25 µg/mL | – | 0.352 | 0.233 | 0.083
B. subtilis 168 [6], partner 0.5 µg/mL | – | 0.222 | 0.101 | 0.0589
S. aureus DSM 20231 [5], partner 0.125 µg/mL | 0.268 | 0.0676 | 0.0245 | –
S. aureus DSM 20231 [5], partner 0.25 µg/mL | – | 0.125 | 0.0812 | –
S. aureus DSM 20231 [5], partner 0.5 µg/mL | – | 0.0734 | 0.0599 | –
S. aureus DSM 20231 [5], partner 1 µg/mL | 0.124 | 0.0694 | 0.0452 | –

fitness, B. subtilis 168 [6], one replicate
Settings | partner 0.1 µg/mL | partner 0.125 µg/mL | partner 0.2 µg/mL | partner 0.25 µg/mL | partner 0.4 µg/mL | partner 0.5 µg/mL | partner 1 µg/mL | partner 2 µg/mL
first compound 0.0039 µg/mL | – | 0.663 | – | 0.563 | – | 0.518 | – | –
first compound 0.0078 µg/mL | – | 0.603 | – | 0.511 | – | 0.481 | – | –
first compound 0.0156 µg/mL | – | 0.596 | – | 0.54 | – | 0.531 | – | –
first compound 0.0625 µg/mL | 0.461 | 0.38 | 0.271 | – | 0.174 | – | 0.041 | 0.0649
first compound 0.125 µg/mL | 0.256 | 0.179 | 0.172 | – | 0.0828 | – | 0.031 | 0.0548
first compound 0.25 µg/mL | 0.126 | 0.0411 | 0.0757 | – | 0.0475 | – | 0.0278 | 0.0626

O=C(O[C@@H]1Cc2c(O)cc(O)cc2O[C@@H]1c1cc(O)c(O)c(O)c1)c1cc(O)c(O)c(O)c1 [EGCG] + CN(C)c1cc(NC(=O)CNC(C)(C)C)c(O)c2c1C[C@H]1C[C@H]3[C@H](N(C)C)C(O)=C(C(N)=O)C(=O)[C@@]3(O)C(O)=C1C2=O [Tigecycline]
Settings | Bliss interaction score
B. subtilis 168 [2] | 0.0564
S. aureus DSM 20231 [1] | -0.0488
S. aureus Newman [3] | -0.067
S. pneumoniae D39V [4] | 0.079

fitness
Settings | first compound 6.25 µg/mL | first compound 12.5 µg/mL | first compound 25 µg/mL | first compound 50 µg/mL
B. subtilis 168 [6], partner 0.039 µg/mL | 0.929 | – | – | –
B. subtilis 168 [6], partner 0.078 µg/mL | 0.929 | – | – | –
B. subtilis 168 [6], partner 0.156 µg/mL | 0.91 | – | – | –
S. aureus Newman [7], partner 0.039 µg/mL | – | 0.755 | 0.744 | –
S. aureus Newman [7], partner 0.078 µg/mL | – | 0.797 | 0.788 | 0.657
S. aureus Newman [7], partner 0.156 µg/mL | – | 0.82 | 0.721 | 0.796
S. pneumoniae D39V [8], partner 0.325 µg/mL | – | 0.913 | 0.97 | 0.958
S. pneumoniae D39V [8], partner 0.65 µg/mL | – | 0.912 | 0.971 | 0.951
S. pneumoniae D39V [8], partner 1.3 µg/mL | – | 0.928 | 0.916 | 0.954
S. pneumoniae D39V [8], partner 2.6 µg/mL | – | 0.897 | 0.929 | 0.935

fitness, B. subtilis 168 [6], one replicate
Settings | first compound 6.25 µg/mL | first compound 12.5 µg/mL | first compound 25 µg/mL
partner 0.125 µg/mL | ≥ 1 | 0.897 | 0.55
partner 0.25 µg/mL | 0.944 | 0.72 | 0.428
partner 0.5 µg/mL | 0.942 | 0.757 | 0.418

O=C(O[C@@H]1Cc2c(O)cc(O)cc2O[C@@H]1c1cc(O)c(O)c(O)c1)c1cc(O)c(O)c(O)c1 [EGCG] + CN[C@@H]1[C@H](O[C@H]2[C@H](O[C@H]3[C@H](O)[C@@H](O)[C@H](N=C(N)N)[C@@H](O)[C@@H]3N=C(N)N)O[C@@H](C)[C@]2(O)C=O)O[C@@H](CO)[C@H](O)[C@H]1O [Streptomycin]
Settings | Bliss interaction score
B. subtilis 168 [2] | 0.303
S. aureus DSM 20231 [1] | 0.136
S. aureus Newman [3] | 0.0695
S. pneumoniae D39V [4] | 0.0781

fitness
Settings | first compound 6.25 µg/mL | first compound 12.5 µg/mL | first compound 25 µg/mL | first compound 50 µg/mL
B. subtilis 168 [6], partner 2 µg/mL | 0.918 | – | 0.325 | –
B. subtilis 168 [6], partner 4 µg/mL | 0.823 | 0.718 | 0.299 | –
B. subtilis 168 [6], partner 8 µg/mL | – | 0.522 | – | –
S. aureus Newman [7], partner 1 µg/mL | – | 0.774 | 0.773 | 0.713
S. aureus Newman [7], partner 2 µg/mL | – | 0.772 | 0.767 | 0.747
S. aureus Newman [7], partner 4 µg/mL | – | – | 0.453 | –
S. pneumoniae D39V [8], partner 2 µg/mL | – | 0.887 | 0.933 | 0.937
S. pneumoniae D39V [8], partner 4 µg/mL | – | 0.902 | 0.914 | 0.968
S. pneumoniae D39V [8], partner 8 µg/mL | – | 0.881 | 0.943 | 0.981

S. pneumoniae D39V [8], partner 16 µg/mL, one replicate
Settings | fitness
first compound 12.5 µg/mL | 0.756
first compound 25 µg/mL | 0.759
first compound 50 µg/mL | 0.762
